Experimental data taken from patent US20140212407A1, “TREATMENT OF OBESITY” (Isis Innovation Limited, priority 2008, published 2014).

Legend:
[1] = Badiou et al. 2005; cited from earlier work
[2] = Body weight and food intake in rats on MR diet with or without L-cysteine, 3 weeks; format: in vivo, rat; details: L-cysteine 5 g/kg added to MR diet, preliminary
Description: To distinguish the effect of cysteine on body weight from that of methionine, the same experiment described above was repeated with addition of a third group. In addition to the methionine restricted (MR) and control groups, a third group was included comprising rats fed an MR diet supplemented with L-cysteine at a concentration of 5 g/kg diet. Age of the rats at the start of experiment, housing conditions and MR and control diets were similar to those in the above experiment. Food and water were provided ad libitum. Each group consisted of 8 rats; there was no significant difference in body weight between the 3 groups at baseline.

gene for CGL = details: by inhibition of the ERK/Sp1 signalling pathway; Fiorucci et al 2005; cited from earlier work
[3] = humans, concentration-dependent; Smith et al 2003; cited from earlier work
[4] = biological target: cystathionine γ-lyase (CGL) (Homo sapiens, UniProt P32929); details: Steegborn et al J Biol Chem 1999; cited from earlier work
cystathionine γ-lyase (CGL), sequence (P32929 whole entry): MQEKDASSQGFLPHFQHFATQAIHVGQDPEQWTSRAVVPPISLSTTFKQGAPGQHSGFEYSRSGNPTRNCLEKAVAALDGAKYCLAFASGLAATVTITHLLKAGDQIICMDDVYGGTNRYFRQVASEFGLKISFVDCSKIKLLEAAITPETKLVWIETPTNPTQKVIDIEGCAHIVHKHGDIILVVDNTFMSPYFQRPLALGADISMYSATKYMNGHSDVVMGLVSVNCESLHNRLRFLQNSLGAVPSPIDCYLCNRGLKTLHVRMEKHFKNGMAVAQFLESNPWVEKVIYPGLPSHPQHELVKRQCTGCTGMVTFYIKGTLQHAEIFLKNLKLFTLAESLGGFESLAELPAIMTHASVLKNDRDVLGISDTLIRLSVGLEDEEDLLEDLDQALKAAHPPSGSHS

## CC1(C)C[C@@H]1C(=O)N/C(=C\CCCCSC[C@H](N)C(=O)O)C(=O)O [Cilastatin, cilastatin]
[1]
  plasma cysteine levels: lowers plasma cysteine levels

## N[C@@H](CS)C(=O)O [L-cysteine]
[2]
  effect on weight gain of MR rats: prevented the decrease in weight gain

## CC(=O)Oc1ccccc1C(=O)O [aspirin]
Gene for CGL
  expression of the gene for CGL: reduce expression

## COc1ccc2c(c1)c(CC(=O)O)c(C)n2C(=O)c1ccc(Cl)cc1 [indomethacin]
Gene for CGL
  expression of the gene for CGL: reduce expression

## CC(C(=O)O)c1cccc(C(=O)c2ccccc2)c1 (stereo not shown) [ketoprofen]
Gene for CGL
  expression of the gene for CGL: reduce expression

## O=S(=O)(O)CCS [mesna]
[3]
  plasma level of cysteine: markedly reduces

## C#CCC(N)C(=O)O (stereo not shown) [propargylglycine]
[4]
  inhibition of CGL enzyme activity: potent inhibitors
